For one experiment, the target named is Cathepsin D (Homo sapiens, UniProt P07339). Description: Assay 3: cathepsin D inhibition activity (non-cellular assay, chromogenic substrate). It counts as biochemical. Also on record: Frozen human placental tissue was thawed and homogenized; from tissue; host or cells: human placenta. The following applies: cathepsin D from human placental tissue; for Ki: chromogenic substrate, pH 3.7, 37°C. As to the method:
A third non-cellular assay for determining in vitro aspartyl protease inhibitory activity is generally described in Jupp, R.A. et al., (1990) Biochem. J., 265:871-878 and Rao et al., J. Med. Chem. (1993), in press. The assay is carried out by incubating a test compound with a suitable aspartyl protease, such as cathepsin D, in the presence of a chromogenic substrate. The inhibition constant, Ki, value may then be determined by quantifying the competitive inhibition of the hydrolysis of the chromogenic substrate. A variety of chromogenic substrates that are useful for assaying aspartyl protease activity are discussed in Dunn, et al., (1986) Biochem. J., 237:899-906. A preferred chromogenic substrate for a cathepsin D assay is disclosed in Scarborough, P.E. et al., Protein Science, (1993), 2:264-276.
Concentrations of substrate solutions and cleavage products may be verified using amino acid analysis. The enzyme preparations may be titrated with a tightly binding inhibitor to quantitate the active concentration of the enzyme. Enzyme concentrations are typically in the range of from 1-6 nM. Stock solutions of the test compound are prepared at concentrations ranging from 1.0 to 5.0 mg/mL, and then 50-100 µL portions of these stock solutions may be further diluted to a concentration in the range of 5 to 300 µM for rate determinations.
[…] Then, the test compounds are assayed over a concentration range of, for example, 5 to 300 µM for rate determinations.
A decrease in absorbance in the range of 284-324 nm may be monitored using a spectrophotometer. Absorbance readings are typically taken at various timepoints. The initial velocities are then plotted versus the initial substrate concentration. […] Estimates of Ki may then be determined using the Dixon construction. Dixon, M., (1953) Biochem J., 55:170-171.
If the ratio of the total active enzyme concentration to the estimated Ki value ([E]t/Ki) is less than 0.2, then the precise Ki value may be computed by using a non-linear curve fitting program based on the equation: v= Vmax [S]/[S] + Km (1 + [I]/Ki ) [formula] where v is the initial rate, [S] is the initial substrate concentration, [I] is the inhibitor concentration and Km and Ki are defined above. […] P.J.F., (1972) Biochem J., 127:321-333. This Assay is exemplfied in Assay 3.
The homogenate was centrifuged at 10,000 rpm for 30 minutes in a Sorvall GSA rotor. The supernatant was adjusted to pH 3.7 using 5.7N HCl and then sodium acetate was added to a concentration of 0.1M. The resultant mixture was incubated for 30 minutes at 0°C, resulting in the formation of a precipitate. This precipitate was removed by centrifugation (30 minutes, 10,000 rpm). The acidic supernatent was applied to a chromatography column (pepstatinyl agarose equilibrated with 0.1M sodium acetate, pH 3.5, 0.1% Brij 35, and 1M NaCl), washed until the OD₂₈₀ of the effluent returned to baseline, and then eluted with 50mM Tris-HCl, pH 8.6, 0.1% Brij 35, and 1M NaCl. The eluent was dialyzed against 10mM sodium phosphate, pH 7.0, 0.1% Brij 35, and 0.1M NaCl, and then applied to a 1 mL DEAE-Sephacel column equilibrated with the same buffer. Cathepsin D was recovered in the breakthrough fraction.
The enzyme mixture (125 µL buffer (0.1M sodium formate at pH 3.7), 1 µL of a 1mM solution of test compound, 4 µL of DMSO, enzyme and water to provide a total volume of 230 µL) was vortexed and prewarmed for four minutes before the addition of the chromogenic substrate. After warming, the enzyme mixture was added to 20 µL of a […] dilution of substrate solution. A control reaction mixture was similarly prepared without the addition of the test compound. The percent of inhibition of the initial rate of reaction in the presence of a particular concentration of test compound (i.e. 4 µM) may be determined for the test compound by monitoring the reaction mixture in parallel to the control reaction. […]

Another experiment concerns the target T1, Human brain cathepsin D (Homo sapiens, UniProt P07339).
T1 construct: Human brain cathepsin D was purified from frozen post-mortem cortex; from tissue; host or cells: human post-mortem brain cortex
Description: Assay 1: cathepsin D inhibition activity (non-cellular assay, porcine renin tetradecapeptide substrate, RP-HPLC). It counts as biochemical. To be noted: purified human brain cathepsin D, pH 4.5, 44 µM porcine renin tetradecapeptide, 37°C. On the procedure:
An example of a non-cellular assay that may be used to determine in vitro aspartyl protease inhibitory activity reacts partially purified human brain cathepsin D with a substrate, e.g., porcine renin tetradecapeptide. The resultant reaction mixture is divided into portions and each portion is incubated for a different period of time. After the reaction is stopped, the turnover of substrate in each portion is determined using reverse-phase HPLC. Protease inhibition activity may be calculated based on the rates of substrate turnover. This assay is exemplified in Assay 1, below. Human brain cathepsin D was purified from frozen post-mortem cortex substantially in accordance with the method of Nixon and Morotta, (1984) J. Neurochem. 43:507-516. The cortex material was prepared and applied to a DEAE-Sepharose® column. The flow through fraction was dialyzed against 50mM Tris-HCl, pH 7.5, and applied to concanavalin A Sepharose® and eluted with 50mM Tris, pH 7.5, 0.5M methyl α-D-mannopyranoside. The eluted cathepsin D activity was dialyzed against 25mM Tris, pH 7.5, and stored at -40°C (Con A pool) until use. For each assay, 50 μL of the Con A pool was diluted to 270 μL in 200mM sodium citrate, pH 4.5, 150mM sodium chloride (NaCl), and incubated for 10 minutes at 4°C with 15 μL of compound stock diluted in dimethylsulfoxide (DMSO). The substrate, porcine renin tetradecapeptide ([…] [SEQ ID NO:3], Bachem Bioscience, Inc., Philadelphia, PA), was added to each reaction mixture to yield a final concentration of 44 μM in a total volume of 300 μL. The samples were incubated at 37°C for 0, 10, 20, or 30 minutes, and then boiled for 5 minutes to stop the reaction. The samples were centrifuged in a microcentrifuge for 10 minutes at 14,000 rpm at 4°C. After centrifugation, 200 μL of each reaction was injected onto […] column (Vydac, Hesperia, CA) with a Perkin Elmer ISS 100 autosampler and eluted with a gradient eluent of 0-50% CH3CN in 0.1% CF3CO2H at 2 mL/min. Peptide product peaks were monitored at 220nm with a Perkin Elmer LC 95 detector and integrated with Rainin Dynamax software in order to quantitate activity.

Experimental findings from patent publication EP0652009A1, “Identification and use of protease inhibitors” (ELI LILLY AND COMPANY, priority 1993, dated 1995) are described below.

Non-standard residues stand in square brackets, D forms with d. Residues, ends and D or L forms follow the SMILES beside them. Sta = CC(C)C[C@H](N)[C@@H](O)CC(=O)O; N(iPr)Gly = CC(C)NCC(=O)O Where only a bound is given, the exact number is not on record here.

T1 sequence (P07339 65-412): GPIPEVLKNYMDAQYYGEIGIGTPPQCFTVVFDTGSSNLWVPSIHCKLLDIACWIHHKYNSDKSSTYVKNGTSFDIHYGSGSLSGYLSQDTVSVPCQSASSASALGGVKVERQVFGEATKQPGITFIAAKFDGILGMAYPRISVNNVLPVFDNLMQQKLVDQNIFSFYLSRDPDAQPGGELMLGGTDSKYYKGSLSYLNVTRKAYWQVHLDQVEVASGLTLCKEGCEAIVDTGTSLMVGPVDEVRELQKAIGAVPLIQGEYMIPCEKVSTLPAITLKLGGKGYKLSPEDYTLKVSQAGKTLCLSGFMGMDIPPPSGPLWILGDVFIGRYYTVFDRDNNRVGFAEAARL
Chain of Cathepsin D (P07339 169-412 limits assumed): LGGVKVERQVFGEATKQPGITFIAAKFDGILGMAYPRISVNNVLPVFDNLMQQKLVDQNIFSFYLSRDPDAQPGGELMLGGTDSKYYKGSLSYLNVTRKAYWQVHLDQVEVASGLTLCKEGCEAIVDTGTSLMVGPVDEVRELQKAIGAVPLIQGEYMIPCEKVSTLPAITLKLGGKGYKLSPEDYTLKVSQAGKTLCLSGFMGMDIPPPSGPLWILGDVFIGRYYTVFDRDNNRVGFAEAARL
Chain of Cathepsin D (P07339 65-162 limits assumed): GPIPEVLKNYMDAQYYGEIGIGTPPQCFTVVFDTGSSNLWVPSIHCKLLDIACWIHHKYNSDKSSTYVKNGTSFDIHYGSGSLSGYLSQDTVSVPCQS

Usually % inhibition stands for the change of the read-out against control, counted positive when it falls. Regarding `Cc1ccc(C(=O)C2NCCc3ccccc32)cc1C(=O)N[C@@H](Cc1ccccc1)[C@H](O)CN1C[C@H]2CCCC[C@H]2C[C@H]1C(=O)NC(C)(C)C` (relative stereo) [Example 30, [3S-(3R*,4aR*,8aR*,2'S*,3'R*)]-2-[2'-Hydroxy-3'-phenylmethyl-4'-aza-5'-oxo-5'-(3''-[1''',2''',3''',4'''-tetrahydroisoquinolin-1'''-ylcarbonyl]-6''-methyl)phenyl]pentyl-decahydroisoquinoline-3-N-t-butylcarboxamide], at Cathepsin D (4 µM test compound, inhibition of initial rate relative to control), the “% inhibition at 4µ M” value is 28%.

By Ki is commonly meant a measure of affinity in units of concentration, obtained from inhibition or displacement. Low readings indicate higher affinity, high ones lower affinity. At Cathepsin D, `Cc1cccc2ccc(C(=O)N[C@@H](CC(N)=O)C(=O)N[C@@H](Cc3ccccc3)[C@H](O)Cc3ccccc3C(=O)NC(C)(C)C)nc12` [Example 9, [1S-(1R*,4R*,5S*)]-N-(1-(2-Amino-2-oxoethyl)-2-oxo-3-aza-4-phenylmethyl-5-hydroxy-6-(2-(1-t-butylamino-1-oxomethyl)phenyl)hexyl)-8-methylquinolin-2-yl carboxamide] yielded an inhibitory constant (Ki) of 820 nM. Consider `CC(C)C(NC(=O)C(Cc1cccc2ccccc12)NC(=O)OC(C)(C)C)C(=O)NC(Cc1ccccc1)C(O)Cc1ccccc1C(=O)NC(C)(C)C` (stereo not drawn) [Example 23, [2R-(2R*,3S*,6S*,9S*)]-N-t-Butyl-2-[2-hydroxy-3-phenylmethyl-4,7-diaza-5,8-dioxo-6-(1-methylethyl)-9-N(t-butoxycarbonyl)amino-10-naphth-1-yl]decyl benzamide], for which affinity at Cathepsin D was put at a Ki of 73 nM. Still for that read-out and setting: under `CC(C)C(NC(=O)C(Cc1cccc2ccccc12)NC(=O)OC(C)(C)C)C(=O)NC(Cc1ccccc1)C(O)Cc1ccccc1C(=O)NC(C)(C)C` (stereo not drawn) [Example 24, [2R-(2R*,3S*,6S*,9R*)]-N-t-Butyl-2-[2-hydroxy-3-phenylmethyl-4,7-diaza-5,8-dioxo-6-(1-methylethyl)-9-N(t-butoxycarbonyl)amino-10-naphth-1-yl]decyl benzamide] stands 42 nM. For orientation: IC50 means the concentration at which inhibition is half-maximal. A higher IC50 goes with lower potency. Molecule `CC(=O)NCC(=O)N[C@H](C(=O)N[C@H](C(=O)N[C@@H](CC(C)C)[C@@H](O)CC(=O)N[C@@H](C)C(=O)N[C@H](C(=O)O)[C@@H](C)O)C(C)C)C(C)C` [Example 41, CH3C(O)-Gly-Val-Val-Sta-Ala-Thr-OH] (Ac-GVV[Sta]AT-OH) gave an IC50 at Human brain cathepsin D of 4 nM. The same measure, in the same setting: next, `CC(C)C[C@H](NC(=O)[C@@H](NC(=O)[C@@H](NC(=O)CNC(C)C)C(C)C)C(C)C)[C@@H](O)CC(=O)N[C@@H](C)C(=O)N[C@H](C(=O)O)[C@@H](C)O` [Example 42, (CH3)2CH-Gly-Val-Val-Sta-Ala-Thr-OH] (H-[N(iPr)Gly]VV[Sta]AT-OH): 8 nM; `CC(C)C[C@H](NC(=O)[C@@H](NC(=O)[C@@H](NC(=O)CN)C(C)C)C(C)C)[C@@H](O)CC(=O)N[C@@H](C)C(=O)N[C@H](C(=O)O)[C@@H](C)O` [Example 43, Gly-Val-Val-Sta-Ala-Thr-OH] (H-GVV[Sta]AT-OH): 53 nM; `CC(C)C[C@H](NC(=O)[C@@H](NC(=O)CN)C(C)C)[C@@H](O)CC(=O)N[C@@H](C)C(=O)N[C@H](C(=O)O)[C@@H](C)O` [Example 45, Gly-Val-Sta-Ala-Thr-OH] (H-GV[Sta]AT-OH): above 250 nM. Still for that read-out and setting: under `CC[C@H](C)[C@H](NC(=O)C[C@H](O)[C@H](CC(C)C)NC(=O)[C@@H](NC(=O)CNC(C)C)C(C)C)C(=O)N[C@@H](C)C(=O)N[C@H](C(=O)O)[C@@H](C)O` [Example 48, (CH3)2CH-Gly-Val-Sta-Ile-Ala-Thr-OH] (H-[N(iPr)Gly]V[Sta]IAT-OH) stands above 250 nM.
